# Data published in patent publication US20260345603A1, “PRMT5 INHIBITORS” (Beijing Earthwise Technology Co., Ltd., priority 2022, published 2026).
# Where two headings read alike, the source gives them in different places.
# Assays:
# Assay type in all cases: cell-based
# [1] = test system: HCT116 cells (HCT116^MTAP WT); experiment: Anti-proliferation assay on cells (CTG, 10 days), HCT116 (MTAP WT); conditions: for Selectivity multiple of HCT116^MTAP WT GI50/HCT116^MTAP Deletion GI50: ratio HCT116 MTAP WT GI50 / HCT116 MTAP Deletion GI50; for selectivity (HCT116 vs HCT116^MTAP Deletion GI50): 14400 min; for GI50: Homo sapiens, HCT-116, HCT116 (MTAP WT)
# Method: (§1) HCT116^MTAD Deletion cells were from Pharmaron (China); HCT116 cells were from ATCC; McCoy's 5A medium was purchased from Invitrogen (USA); penicillin-streptomycin and fetal bovine serum were purchased from Gibco (USA); a 384-well plate was purchased from PerkinElmer (USA); and Cell-Titer Glo reagent was purchased from Promega (USA).
# (§2) Compound dissolution: All the compounds were dissolved in dimethyl sulfoxide (DMSO) and then stored. The compounds were stored at room temperature in a dry condition for 3 months for short term storage or at −20 °C for long term storage.
# (§3) The cells were cultured strictly in accordance with ATCC requirements. The cell culture medium (McCoy's 5A medium+10% fetal bovine serum+1% penicillin+streptomycin) was transferred to a 15 mL centrifuge tube and centrifuged at 1000 rpm for 5 min. The supernatant was removed. The cells were resuspended with complete culture medium, inoculated into a culture dish at the required density, and cultured in an incubator at 37 °C, 95% humid air, and 5% carbon dioxide. The culture medium was replenished or the cells were passaged every 2-3 days depending on the cell growth condition.
# (§4) When the confluency of cells in the culture dish reached about 90%, the cells were washed twice with PBS, and then treated with trypsin to become single cells. The cells were counted, and 40 μl of the cells was inoculated into each well of a 384-well plate (50 cells/well). The plate was equilibrated at 37 °C and 5% carbon dioxide for 10 to 15 minutes. The compounds were injected into the 384-well plate using Echo550, and positive control and negative control (0.1% DMSO) were set up. Each compound was subjected to a 3-fold dilution, resulting in 10 concentration gradients, in duplicate, and the content of DMSO was 0.1%. The 384-well plate was incubated in a cell culture incubator for 10 days.
# (§5) Then, 40 μl of cell proliferation assay reagent (CTG) was added to the 384-well plate, and the plate was shaken to mix well. Then, the 384-well plate was incubated at 37 °C and 5% carbon dioxide in the dark for 30 minutes. The data were read using the Envision multifunctional microplate reader. […] According to the different drug concentrations and their corresponding inhibition rates, the GI50 curve was drawn using GraphPad 8.0 software. The data were analyzed, and the final GI50 value was obtained.
# [2] = test system: HCT116^MTAP Deletion cells; experiment: Anti-proliferation assay on cells (CTG, 10 days), HCT116 MTAP Deletion
# Method: as §1, §2, §3, §4, §5
# [3] = target: T1, cellular SDMA in HCT116^MTAP Deletion cells (Homo sapiens, UniProt O14744); experiment: In-Cell Western Assay of cellular SDMA, HCT116 MTAP Deletion; conditions: 96 hours, read-out: SDMA inhibition IC50 in HCT116^MTAP Deletion
# T1 construct: in-cell Western of symmetric dimethylarginine
# T1 sequence (O14744 whole entry, stated change not applied): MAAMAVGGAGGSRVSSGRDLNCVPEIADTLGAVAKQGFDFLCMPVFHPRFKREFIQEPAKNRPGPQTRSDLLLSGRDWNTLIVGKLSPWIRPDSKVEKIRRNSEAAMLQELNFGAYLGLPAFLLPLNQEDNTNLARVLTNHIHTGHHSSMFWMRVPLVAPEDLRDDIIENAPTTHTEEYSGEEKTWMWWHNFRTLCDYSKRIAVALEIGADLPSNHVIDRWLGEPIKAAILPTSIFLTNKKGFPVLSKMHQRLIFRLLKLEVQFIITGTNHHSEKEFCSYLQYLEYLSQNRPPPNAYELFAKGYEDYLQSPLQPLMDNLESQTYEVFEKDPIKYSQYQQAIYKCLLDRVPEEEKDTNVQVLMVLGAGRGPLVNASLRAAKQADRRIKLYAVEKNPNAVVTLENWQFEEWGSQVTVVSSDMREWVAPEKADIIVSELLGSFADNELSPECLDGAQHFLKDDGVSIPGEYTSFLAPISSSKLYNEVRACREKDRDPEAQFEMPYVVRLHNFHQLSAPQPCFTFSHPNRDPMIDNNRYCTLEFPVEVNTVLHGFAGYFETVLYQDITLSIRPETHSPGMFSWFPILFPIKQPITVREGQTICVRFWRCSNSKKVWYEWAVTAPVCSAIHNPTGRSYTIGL
# T1 sequence (Q9BQA1 whole entry partner): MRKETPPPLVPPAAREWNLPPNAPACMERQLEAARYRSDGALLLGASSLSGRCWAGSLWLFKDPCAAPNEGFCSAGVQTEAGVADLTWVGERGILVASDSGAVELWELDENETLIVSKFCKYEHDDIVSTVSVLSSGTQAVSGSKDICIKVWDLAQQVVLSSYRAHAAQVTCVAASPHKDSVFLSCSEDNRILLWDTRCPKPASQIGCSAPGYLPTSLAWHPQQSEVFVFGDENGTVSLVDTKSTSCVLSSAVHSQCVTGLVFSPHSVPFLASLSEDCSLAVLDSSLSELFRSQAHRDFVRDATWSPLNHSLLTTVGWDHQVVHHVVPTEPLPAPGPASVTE
# From the text: (§6) HCT116^MTAPD Deletion cells were from Horizon; HCT116 cells were from ATCC; RPMI-1640 medium was purchased from ATCC (USA); penicillin-streptomycin was purchased from Gibco (USA); fetal bovine serum was purchased from ExCell; 96-well plate was purchased from Corning (USA); Symmetric Di-Methyl Arginine Motif [sdme-RG]antibody was purchased from CST (USA); IRDye 800CW Goat anti-Rabbit IgG secondary antibody was purchased from LI-COR (USA), and CellTag 700 stain was purchased from LI-COR (USA).
# (§7) Compound dissolution: All the compounds were dissolved in dimethyl sulfoxide (DMSO) and then stored. The compounds were stored at −20 °C for long term storage.
# as §3, with “(RPMI-1640” for “(McCoy's 5A”, “medium+10%” for “medium+10% fetal bovine”
# When the confluency of cells in the culture dish reached about 90%, the cells were washed twice with PBS, and then digested with trypsin. 100 μl of the cells was inoculated into each well of a 96-well plate (800 cells/well). The plate was incubated overnight in a 37 °C and 5% CO2 incubator. 50 μL of 3× final concentration of a compound was added to the cell culture plate. Each compound was subjected to a 3-fold dilution, resulting in 10 concentration gradients, in duplicate, and the final concentration of DMSO was 0.5%. The plate was incubated in a 37 °C and 5% CO2 incubator for 96 hours.
# 150 μL of 8% paraformaldehyde was added to each well, and the plate was incubated at room temperature for 15 minutes. The supernatant was discarded. The plate was washed with PBS, and 200 μL of freshly prepared 1× Permeabilization buffer was added to each well. The plate was incubated at room temperature for 30 minutes. The supernatant was discarded. 200 μL of 1× Blocking buffer was added to each well, and the plate was incubated at room temperature for 2 hours. The supernatant was discarded. 50 μL of primary antibody (CST, 1× Incubation buffer 1:500 dilution) was added to each well, and the plate was incubated at 4 °C overnight. The supernatant was discarded. 250 μL of 1× Washing buffer was added to each well, and the plate was washed three times. 50 μL of secondary antibody (IRDye 800CW Goat anti-Rabbit IgG and CellTag 700 dye, 1:800 and 1:500 diluted in Incubation buffer) was added to each well, and the plate was incubated at room temperature for 1 hour. The supernatant was discarded. The plate was washed with 1× Washing buffer. Signals were detected using Licor Odyssey CLX. […] According to the different drug concentrations and their corresponding inhibition rates, the IC50 curve was drawn using GraphPad 8.0 software. The data were analyzed, and the final IC50 value was obtained.
# [4] = test system: cellular SDMA in HCT116 cells; experiment: In-Cell Western Assay of cellular SDMA, HCT116; conditions: Homo sapiens, HCT-116, 96 hours, read-out: SDMA inhibition IC50 in HCT116
# From the text: as §6, §7
# as §3, with “(RPMI-1640” for “(McCoy's 5A”, “medium+10%” for “medium+10% fetal bovine”, “The culture medium was replenished or the cells were passaged every 2-3 days depending on the cell growth condition.” left out
# 150 μL of 8% paraformaldehyde was added to each well, and the plate was incubated at room temperature for 15 minutes. […] Signals were detected using Licor Odyssey CLX. […] The data were analyzed, and the final IC50 value was obtained.
# [5] = Homo sapiens, HCT-116, 240 h, anti-proliferative activity, HCT116 MTAP Deletion, 10 days, class symbols, read-out: HCT116^MTAP Deletion GI50
# [6] = anti-proliferative activity, HCT116 MTAP Deletion, 10 days, class symbols, read-out: HCT116^MTAP Deletion GI50
# [7] = Homo sapiens, HCT-116, HCT116 MTAP Deletion, read-out: GI50 for HCT116^MTAP Deletion
"GI50 [2, 5] [µM]",SMILES,further results
≤ 0.01,CN(C(=O)C(=O)Nc1cnc(N)c2c1cnn2C)C1COc2cc(C(F)(F)F)ccc21 (centres unmarked) [Example 89],Selectivity multiple of HCT116^MTAP WT GI50/HCT116^MTAP Deletion GI50 [1]: 160
0.1 to 1,C[C@H](c1ncccn1)N(Cc1ccc(C(F)(F)F)cn1)C(=O)C(=O)Nc1cnc(N)c2cnn(C)c12 [Example 34],"selectivity (HCT116 vs HCT116^MTAP Deletion GI50) [1]: more than 300 times; GI50 [1]: 1 to 10 µM; GI50 [2, 7]: ≤ 0.1 µM"
≤ 0.01,CN(C(=O)C(=O)Nc1cnc(N)c2c1cnn2C)C1COCc2cc(Br)ccc21 (centres unmarked) [Example 94],–
1 to 10,C[C@H](c1ncccn1)N(Cc1ccc(C(F)(F)F)cn1)C(=O)C(=O)Nc1cnc(N)c(Cl)c1 [Example 23],–
≤ 0.01,Cn1ncc2c(NC(=O)C(=O)N(Cc3ccc(C(F)(F)F)cn3)CC3CC3)cnc(N)c21 [Example 43],–
≤ 0.01,CN(C(=O)C(=O)Nc1cnc(N)c2c1cnn2C)C1COCc2cc(-c3cnn(C)c3)ccc21 (centres unmarked) [Example 99],–
≤ 0.01,Cc1ncc(-c2ccc3c(c2)COCC3N(C)C(=O)C(=O)Nc2cnc(N)c3c2cnn3C)s1 (centres unmarked) [Example 135],IC50 [3]: ≤ 0.01 µM
0.01 to 0.1,Cc1ccc2c(c1)OCC2N(C)C(=O)C(=O)Nc1cnc(N)c2c1cnn2C (centres unmarked) [Example 233],–
0.01 to 0.1,CN(C(=O)C(=O)Nc1cnc(N)c2c1cnn2C)C1COCc2cc(C(F)(F)F)ccc21 (centres unmarked) [Example 106-P1],–
1 to 10,Cc1cc(NC(=O)C(=O)N(Cc2ccc(C(F)(F)F)cn2)C(C)(C)C)cnc1N [Example 33],"selectivity (HCT116 vs HCT116^MTAP Deletion GI50) [1]: more than 300 times; GI50 [1]: 1 to 10 µM; GI50 [2, 7]: ≤ 0.1 µM"
≤ 0.01,[2H]C([2H])([2H])N(C(=O)C(=O)Nc1cnc(N)c2c1cnn2C)C1COCc2cc(C(F)(F)F)ccc21 (centres unmarked) [Example 109],–
0.1 to 1,CCc1cc(NC(=O)C(=O)N(Cc2ccc(C(F)(F)F)cn2)[C@H](C)c2ncccn2)cnc1N [Example 21],–

# The next lines start with the compound.
SMILES,"GI50 [2, 5] [µM]",further results
CN(C(=O)C(=O)Nc1cnc(N)c2c1cnn2C)C1COCc2cc(C(F)(F)F)ccc21 (centres unmarked) [Example 106-P2],–,"Selectivity multiple of HCT116^MTAP WT GI50/HCT116^MTAP Deletion GI50 [1]: 169; GI50 [2, 6]: ≤ 0.01 µM; IC50 [3]: ≤ 0.01 µM; IC50 [4]: 0.01 to 0.1 µM"
"CN(C(=O)C(=O)Nc1cnc(N)c2c1cnn2C)C1COCc2cc(Cl)c(Cl)cc21 (single isomer, unassigned) [Example 163-P1]",–,Selectivity multiple of HCT116^MTAP WT GI50/HCT116^MTAP Deletion GI50 [1]: 94
"CN(C(=O)C(=O)Nc1cnc(N)c2c1cnn2C)C1COc2cc(C(F)(F)F)ccc21 (single isomer, unassigned) [Example 112-P1]",–,"GI50 [2, 6]: ≤ 0.01 µM; IC50 [3]: ≤ 0.01 µM; IC50 [4]: 0.1 to 1 µM"
CN(C(=O)C(=O)Nc1cnc(N)c2c1cnn2C)C1COc2cc(-c3ccnn3C)ccc21 (centres unmarked) [Example 192-P1],–,IC50 [3]: ≤ 0.01 µM
CN(C(=O)C(=O)Nc1cnc(N)c2c1cnn2C)C1COCc2cc(C3=CCOCC3)ccc21 (centres unmarked) [Example 132-P1],–,"GI50 [2, 6]: ≤ 0.01 µM; IC50 [3]: ≤ 0.01 µM"
CN(C(=O)C(=O)Nc1cnc(N)c2c1cnn2C)C1COCc2cc(-c3ccc(C(F)(F)F)nc3)ccc21 (racemic) [Compound 221],≤ 0.01,–
Cc1cc(/C=C/C(=O)N(Cc2ccc(C(F)(F)F)cn2)[C@H](C)c2ncccn2)cnc1N [Example 6],> 10,–
COC[C@H](C)N(Cc1ccc(C(F)(F)F)cn1)C(=O)C(=O)Nc1cnc(N)c(C)c1 [Example 9],0.01 to 0.1,–
CN(C(=O)C(=O)Nc1cnc(N)c2c1cnn2C)C1COc2cc(F)c(F)cc21 (racemic) [Compound 172],0.01 to 0.1,–
CN(C(=O)C(=O)Nc1cnc(N)c2c1cnn2C)C1COCc2nc(C(F)(F)F)ccc21 (centres unmarked) [Example 152-P2],–,IC50 [3]: 0.01 to 0.1 µM
Cc1ncc(-c2ccc3c(n2)COCC3N(C)C(=O)C(=O)Nc2cnc(N)c3c2cnn3C)s1 (racemic) [Compound 209],≤ 0.01,–
Cn1ncc2c(NC(=O)C(=O)N(Cc3ccc(C(F)(F)F)cn3)CC3CCC3)cnc(N)c21 [Example 4],0.01 to 0.1,–
CN(C(=O)C(=O)Nc1cnc(N)c2c1cnn2C)C1COCc2cc(-c3ccnn3C)ccc21 (racemic) [Compound 156],≤ 0.01,–
CCC(C)N(Cc1ccc(C(F)(F)F)cn1)C(=O)C(=O)Nc1cnc(N)c(C)c1 (centres unmarked) [Example 8],0.01 to 0.1,–
CCC(C)N(Cc1ccc(C(F)(F)F)cn1)C(=O)C(=O)Nc1cnc(N)c2c1COC2C (centres unmarked) [Example 10],0.01 to 0.1,–
"Cc1cc(NC(=O)C(=O)N(Cc2ccc(C(F)(F)F)cn2)C2CCCOC2)cnc1N (single isomer, unassigned) [Example 14-P1]",0.1 to 1,–
"CCC(C)N(Cc1ccc(C(F)(F)F)cn1)C(=O)C(=O)Nc1cnc(OC)c(C(N)=O)c1 (single isomer, unassigned) [Example 5-P1]",0.01 to 0.1,–
Cc1cc(NC(=O)C(=O)N(Cc2ccc(C(F)(F)F)cn2)CC2CC2)cnc1N [Example 15],0.01 to 0.1,–
Cc1cc(NC(=O)C(=O)N(Cc2ccc(C(F)(F)F)cn2)C2CC2)cnc1N [Example 12],0.1 to 1,–
CN(C(=O)C(=O)Nc1cnc(N)c2c1cnn2C)C1COCc2cc(-c3ccnn3C)ccc21 (centres unmarked) [Example 156-P1],–,IC50 [3]: ≤ 0.01 µM
Cc1cc(C2CC2C(=O)N(Cc2ccc(C(F)(F)F)cn2)[C@H](C)c2ncccn2)cnc1N (some centres unmarked) [Example 7],> 10,–
